Patent publication US20260262643A1, “HERBICIDAL BENZOXAZINES” (FMC CORPORATION, priority 2022, published 2026)

Columns and labels:
horseweed = assay: Test A postemergence; assay type: in vivo, Erigeron canadensis; conditions: postemergence, 10 days; for Horseweed plant response rating: 125 g ai/ha, 0 to 100 scale, 0 no effect, 100 complete control; for Plant response rating, Horseweed: 500 g ai/ha, visual injury, 0 to 100 scale (0 no effect, 100 complete control)
Method in brief: (§1)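 Seeds in loam–sand blend received a directed preemergence soil spray of compound in non-phytotoxic solvent with surfactant; postemergence plants (2–10 cm, one- to two-leaf stage) were sprayed with the same formulation. After 10 days in greenhouse, injury was rated visually versus untreated controls, 0 (no effect) to 100 (complete control).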

ragweed [1] = assay: Test A preemergence; assay type: in vivo, Ambrosia artemisiifolia
Method in brief: as §1

ryegrass, Italian [2] = assay: Test A postemergence; assay type: in vivo, Lolium multiflorum; conditions: postemergence, 10 days; for Ryegrass, Italian plant response rating: 125 g ai/ha, 0 to 100 scale, 0 no effect, 100 complete control; for Plant response rating, Ryegrass, Italian: 500 g ai/ha, visual injury, 0 to 100 scale (0 no effect, 100 complete control)
Method in brief: as §1

foxtail, giant [3] = assay: Test A preemergence; assay type: in vivo, Setaria faberi
Method in brief: as §1

goosegrass [4] = assay: Test A preemergence; assay type: in vivo, Eleusine indica
Method in brief: as §1

pigweed, palmer [5] = assay: Test A postemergence; assay type: in vivo, Amaranthus palmeri; conditions: postemergence, 10 days; for Pigweed, Palmer plant response rating: 125 g ai/ha, 0 to 100 scale, 0 no effect, 100 complete control; for Plant response rating, Pigweed, Palmer: 500 g ai/ha, visual injury, 0 to 100 scale (0 no effect, 100 complete control)
Method in brief: as §1

wheat [6] = assay: Test A preemergence; assay type: in vivo, Triticum aestivum
Method in brief: as §1

ragweed [7] = assay: Test A postemergence; assay type: in vivo, Ambrosia artemisiifolia; conditions: postemergence, 10 days; for Ragweed plant response rating: 125 g ai/ha, 0 to 100 scale, 0 no effect, 100 complete control; for Plant response rating, Ragweed: 500 g ai/ha, visual injury, 0 to 100 scale (0 no effect, 100 complete control)
Method in brief: as §1

sedge, umbrella = assay: Test B flooded paddy test; assay type: in vivo, Cyperus difformis; conditions: 250 g ai/ha, Flood, 13 days, 0 to 100 scale (0 no effect, 100 complete control)
Method in brief: (§2)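 Percent weed or crop control, judged by eye on a 0–100 scale 13 days post-treatment, reflects compound added to a 3 cm flood maintained over 2-leaf plants in the greenhouse. Missing entries are marked with a dash.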

kochia [8] = assay: Test A preemergence; assay type: in vivo, Bassia scoparia
Method in brief: as §1

wheat [9] = assay: Test A postemergence; assay type: in vivo, Triticum aestivum; conditions: postemergence, 10 days; for Wheat plant response rating: 125 g ai/ha, 0 to 100 scale, 0 no effect, 100 complete control; for Plant response rating, Wheat: 500 g ai/ha, visual injury, 0 to 100 scale (0 no effect, 100 complete control)
Method in brief: as §1

foxtail, giant [10] = assay: Test A postemergence; assay type: in vivo, Setaria faberi; conditions: postemergence, 10 days; for Foxtail, Giant plant response rating: 125 g ai/ha, 0 to 100 scale, 0 no effect, 100 complete control; for Plant response rating, Foxtail, Giant: 500 g ai/ha, visual injury, 0 to 100 scale (0 no effect, 100 complete control)
Method in brief: as §1

goosegrass [11] = assay: Test A postemergence; assay type: in vivo, Eleusine indica; conditions: postemergence, 10 days; for Goosegrass plant response rating: 125 g ai/ha, 0 to 100 scale, 0 no effect, 100 complete control; for Plant response rating, Goosegrass: 500 g ai/ha, visual injury, 0 to 100 scale (0 no effect, 100 complete control)
Method in brief: as §1

soybean [12] = assay: Test A postemergence; assay type: in vivo, Glycine max; conditions: postemergence, 10 days; for Soybean plant response rating: 125 g ai/ha, 0 to 100 scale, 0 no effect, 100 complete control; for Plant response rating, Soybean: 500 g ai/ha, visual injury, 0 to 100 scale (0 no effect, 100 complete control)
Method in brief: as §1

oat, wild [13] = assay: Test A preemergence; assay type: in vivo, Avena fatua
Method in brief: as §1

barnyardgrass = assay: Test B flooded paddy test; assay type: in vivo, Echinochloa crus-galli; conditions: 250 g ai/ha, Flood, 13 days, 0 to 100 scale (0 no effect, 100 complete control)
Method in brief: as §2

blackgrass [14] = assay: Test A preemergence; assay type: in vivo, Alopecurus myosuroides
Method in brief: as §1

soybean [15] = assay: Test A preemergence; assay type: in vivo, Glycine max
Method in brief: as §1

kochia [16] = assay: Test A postemergence; assay type: in vivo, Bassia scoparia; conditions: postemergence, 10 days; for Kochia plant response rating: 125 g ai/ha, 0 to 100 scale, 0 no effect, 100 complete control; for Plant response rating, Kochia: 500 g ai/ha, visual injury, 0 to 100 scale (0 no effect, 100 complete control)
Method in brief: as §1

ducksalad = assay: Test B flooded paddy test; assay type: in vivo, Heteranthera limosa; conditions: 250 g ai/ha, Flood, 13 days, 0 to 100 scale (0 no effect, 100 complete control)
Method in brief: as §2

oat, wild [17] = assay: Test A postemergence; assay type: in vivo, Avena fatua; conditions: postemergence, 10 days; for Oat, Wild plant response rating: 125 g ai/ha, 0 to 100 scale, 0 no effect, 100 complete control; for Plant response rating, Oat, Wild: 500 g ai/ha, visual injury, 0 to 100 scale (0 no effect, 100 complete control)
Method in brief: as §1

blackgrass [18] = assay: Test A postemergence; assay type: in vivo, Alopecurus myosuroides; conditions: postemergence, 10 days; for Blackgrass plant response rating: 125 g ai/ha, 0 to 100 scale, 0 no effect, 100 complete control; for Plant response rating, Blackgrass: 500 g ai/ha, visual injury, 0 to 100 scale (0 no effect, 100 complete control)
Method in brief: as §1

ryegrass, Italian [19] = assay: Test A preemergence; assay type: in vivo, Lolium multiflorum
Method in brief: as §1

corn [20] = assay: Test A preemergence; assay type: in vivo, Zea mays
Method in brief: as §1

corn [21] = assay: Test A postemergence; assay type: in vivo, Zea mays; conditions: postemergence, 10 days; for Corn plant response rating: 125 g ai/ha, 0 to 100 scale, 0 no effect, 100 complete control; for Plant response rating, Corn: 500 g ai/ha, visual injury, 0 to 100 scale (0 no effect, 100 complete control)
Method in brief: as §1

pigweed, palmer [22] = assay: Test A preemergence; assay type: in vivo, Amaranthus palmeri
Method in brief: as §1

rice = assay: Test B flooded paddy test; assay type: in vivo, Oryza sativa; conditions: 250 g ai/ha, Flood, 13 days, 0 to 100 scale (0 no effect, 100 complete control)
Method in brief: as §2

[23] = 125 g ai/ha, visual injury after 10 days, 0 to 100 scale, 0 is no effect, 100 is complete control
[24] = 500 g ai/ha, 0 to 100 scale (0 no effect, 100 complete control), 10 days

CCCCc1ncn(-c2cccc(C(=O)N3C[C@H](C)Oc4c(C)cccc43)c2)n1 [Compound 86]
0: Horseweed plant response rating (horseweed) | Plant response rating, Horseweed (horseweed) | Plant response rating, Ragweed (ragweed [1]; [23]) | Plant response rating, Ragweed (ragweed [1]; [24]) | Plant response rating, Foxtail, Giant (foxtail, giant [3]; [23]) | Plant response rating, Wheat (wheat [6]; [23]) | Plant response rating, Oat, Wild (oat, wild [13]; [23]) | Plant response rating, Barnyardgrass (barnyardgrass) | Plant response rating, Blackgrass (blackgrass [14]; [23]) | Plant response rating, Soybean (soybean [15]; [23]) | Plant response rating, Soybean (soybean [15]; [24]) | Oat, Wild plant response rating (oat, wild [17]) | Blackgrass plant response rating (blackgrass [18]) | Plant response rating, Corn (corn [20]; [23]) | Corn plant response rating (corn [21]) | Plant response rating, Rice (rice)
65: Plant response rating, Ducksalad (ducksalad)
70: Plant response rating, Foxtail, Giant (foxtail, giant [3]; [24]) | Plant response rating, Kochia (kochia [8]; [24]) | Plant response rating, Ryegrass, Italian (ryegrass, Italian [19]; [23])
30: Plant response rating, Blackgrass (blackgrass [14]; [24]) | Plant response rating, Blackgrass (blackgrass [18])
80: Plant response rating, Oat, Wild (oat, wild [13]; [24])
10: Ryegrass, Italian plant response rating (ryegrass, Italian [2]) | Plant response rating, Wheat (wheat [6]; [24]) | Wheat plant response rating (wheat [9]) | Foxtail, Giant plant response rating (foxtail, giant [10]) | Goosegrass plant response rating (goosegrass [11]) | Plant response rating, Oat, Wild (oat, wild [17]) | Plant response rating, Corn (corn [21])
40: Plant response rating, Pigweed, Palmer (pigweed, palmer [5])
20: Pigweed, Palmer plant response rating (pigweed, palmer [5]) | Plant response rating, Wheat (wheat [9]) | Plant response rating, Foxtail, Giant (foxtail, giant [10]) | Plant response rating, Corn (corn [20]; [24]) | Plant response rating, Pigweed, Palmer (pigweed, palmer [22]; [23])
50: Plant response rating, Ryegrass, Italian (ryegrass, Italian [2]) | Ragweed plant response rating (ragweed [7]) | Plant response rating, Ragweed (ragweed [7]) | Plant response rating, Goosegrass (goosegrass [11]) | Soybean plant response rating (soybean [12]) | Kochia plant response rating (kochia [16])
90: Plant response rating, Goosegrass (goosegrass [4]; [24]) | Plant response rating, Sedge, Umbrella (sedge, umbrella) | Plant response rating, Kochia (kochia [16]) | Plant response rating, Pigweed, Palmer (pigweed, palmer [22]; [24])
100: Plant response rating, Soybean (soybean [12]) | Plant response rating, Ryegrass, Italian (ryegrass, Italian [19]; [24])
60: Plant response rating, Goosegrass (goosegrass [4]; [23]) | Plant response rating, Kochia (kochia [8]; [23])

C[C@H]1CN(C(=O)c2cc(Cl)cc(-n3cncn3)c2)c2cccc(Cl)c2O1 [Compound 81]
90: Plant response rating, Foxtail, Giant (foxtail, giant [3]; [24]) | Plant response rating, Goosegrass (goosegrass [4]; [24]) | Plant response rating, Pigweed, Palmer (pigweed, palmer [5]) | Plant response rating, Foxtail, Giant (foxtail, giant [10]) | Plant response rating, Kochia (kochia [16])
70: Plant response rating, Goosegrass (goosegrass [4]; [23])
20: Plant response rating, Foxtail, Giant (foxtail, giant [3]; [23]) | Ragweed plant response rating (ragweed [7]) | Plant response rating, Ragweed (ragweed [7]) | Plant response rating, Wheat (wheat [9]) | Foxtail, Giant plant response rating (foxtail, giant [10]) | Plant response rating, Oat, Wild (oat, wild [17])
0: Horseweed plant response rating (horseweed) | Plant response rating, Horseweed (horseweed) | Plant response rating, Ragweed (ragweed [1]; [23]) | Plant response rating, Ragweed (ragweed [1]; [24]) | Plant response rating, Sedge, Umbrella (sedge, umbrella) | Plant response rating, Kochia (kochia [8]; [23]) | Plant response rating, Barnyardgrass (barnyardgrass) | Plant response rating, Soybean (soybean [15]; [23]) | Plant response rating, Soybean (soybean [15]; [24]) | Plant response rating, Ducksalad (ducksalad) | Blackgrass plant response rating (blackgrass [18]) | Plant response rating, Corn (corn [20]; [23]) | Plant response rating, Corn (corn [20]; [24]) | Corn plant response rating (corn [21]) | Plant response rating, Rice (rice)
60: Pigweed, Palmer plant response rating (pigweed, palmer [5]) | Plant response rating, Blackgrass (blackgrass [14]; [24]) | Plant response rating, Blackgrass (blackgrass [18])
50: Plant response rating, Oat, Wild (oat, wild [13]; [23]) | Kochia plant response rating (kochia [16]) | Plant response rating, Ryegrass, Italian (ryegrass, Italian [19]; [23]) | Plant response rating, Corn (corn [21])
100: Plant response rating, Ryegrass, Italian (ryegrass, Italian [2]) | Soybean plant response rating (soybean [12]) | Plant response rating, Soybean (soybean [12])
10: Plant response rating, Wheat (wheat [6]; [23]) | Plant response rating, Wheat (wheat [6]; [24]) | Wheat plant response rating (wheat [9]) | Goosegrass plant response rating (goosegrass [11]) | Oat, Wild plant response rating (oat, wild [17])
80: Plant response rating, Oat, Wild (oat, wild [13]; [24]) | Plant response rating, Ryegrass, Italian (ryegrass, Italian [19]; [24]) | Plant response rating, Pigweed, Palmer (pigweed, palmer [22]; [24])
30: Ryegrass, Italian plant response rating (ryegrass, Italian [2]) | Plant response rating, Kochia (kochia [8]; [24]) | Plant response rating, Goosegrass (goosegrass [11]) | Plant response rating, Blackgrass (blackgrass [14]; [23]) | Plant response rating, Pigweed, Palmer (pigweed, palmer [22]; [23])
